In patent publication US9434610B2, “HPMA—docetaxel conjugates and uses therefore” (REXAHN PHARMACEUTICALS, INC., priority 2008, dated 2016):

Assays:
[1] = tested on: UMRC2 (kidney); test: In vitro cell proliferation (SRB) assay, UMRC2; format: cell-based; conditions: Homo sapiens, 96 hours, drug equivalent
Description: (§1) Cancer cell lines to determine the effect of HPMA-drug conjugates were obtained from the following sources: Human MDA-MB-231 (breast), HCT116 (colon) and PANC-1 (pancreas), from the American Type Culture Collection (ATCC) (Manassas, Va.). UMRC2 (kidney) from United States National Cancer Institute (Bethesda, Md.). Cells were maintained in Dulbecco's modified Eagle's medium (“DMEM”, Invitrogen) supplemented with 10% FBS, P/S and 10 mM HEPES. All cells were incubated at 37° C. under humidified 5% CO2.
(§2) The growth inhibition assay of HPMA-drug conjugates against human cancer cell lines was performed using the Sulforhodamine B (“SRB”) method (Skehan et al., J. National Cancer Institute, 82: 1107-1112 (1990)). […] After 5 minutes agitation in 10 mM Tris solution, the absorbance of each well was measured at 530 nm using Benchmark Plus Microplate reader (Bio-Rad Laboratories, Hercules, Calif.). The absorbance value provides a direct measure of the number of live cells post-treatment with HPMA copolymer-drug conjugates.
(§3) To translate the OD530 values into the number of live cells in each well, the OD530 values were compared to those on standard OD530-versus-cell number curves generated for each cell line. The percent survival was calculated using the formula: % Survival=live cell number[test]/live cell number[control]×100
(§4) The IC50 values were calculated by non-linear regression analysis.

[2] = tested on: PANC-1 (pancreas); test: In vitro cell proliferation (SRB) assay, PANC-1; format: cell-based; conditions: Homo sapiens, 96 hours, drug equivalent
Description: as §1, §2, §3, §4

[3] = tested on: MDA-MB-231 (breast); test: In vitro cell proliferation (SRB) assay, MDA-MB-231; format: cell-based; conditions: Homo sapiens, 96 hours, drug equivalent
Description: as §1, §2, §3, §4

[4] = tested on: HCT116 (colon); test: In vitro cell proliferation (SRB) assay, HCT116; format: cell-based; conditions: Homo sapiens, HCT-116, 96 hours, drug equivalent
Description: as §1, §2, §3, §4

[5] = target: glycosylphosphatidylinositol-linked folate receptor (FR); conditions: high affinity folate receptor; cited from earlier work
[6] = target: T1, reduced folate carrier (Homo sapiens, UniProt P41440); conditions: low affinity reduced folate carrier, cellular uptake; cited from earlier work
T1 sequence (P41440 1-591): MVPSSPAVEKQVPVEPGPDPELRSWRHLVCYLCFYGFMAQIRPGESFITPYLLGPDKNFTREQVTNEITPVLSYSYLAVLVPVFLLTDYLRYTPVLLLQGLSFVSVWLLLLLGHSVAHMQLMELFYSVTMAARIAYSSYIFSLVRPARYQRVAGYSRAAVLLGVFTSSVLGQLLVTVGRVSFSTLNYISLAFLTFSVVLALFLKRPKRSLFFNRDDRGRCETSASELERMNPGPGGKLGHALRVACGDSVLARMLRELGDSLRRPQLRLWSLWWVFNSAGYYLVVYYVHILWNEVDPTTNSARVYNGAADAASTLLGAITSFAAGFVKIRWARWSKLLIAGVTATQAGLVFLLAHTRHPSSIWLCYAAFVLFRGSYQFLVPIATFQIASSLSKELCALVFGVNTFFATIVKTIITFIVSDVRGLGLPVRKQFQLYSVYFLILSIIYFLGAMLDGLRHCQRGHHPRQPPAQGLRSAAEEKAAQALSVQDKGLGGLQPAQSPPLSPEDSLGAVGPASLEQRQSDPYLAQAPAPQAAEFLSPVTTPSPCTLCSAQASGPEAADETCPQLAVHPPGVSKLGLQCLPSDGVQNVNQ

[7] = target: mucin-1 (Homo sapiens, UniProt P15941); conditions: specific ligand of mucin-1; cited from earlier work
Chain of mucin-1 (P15941 24-1255): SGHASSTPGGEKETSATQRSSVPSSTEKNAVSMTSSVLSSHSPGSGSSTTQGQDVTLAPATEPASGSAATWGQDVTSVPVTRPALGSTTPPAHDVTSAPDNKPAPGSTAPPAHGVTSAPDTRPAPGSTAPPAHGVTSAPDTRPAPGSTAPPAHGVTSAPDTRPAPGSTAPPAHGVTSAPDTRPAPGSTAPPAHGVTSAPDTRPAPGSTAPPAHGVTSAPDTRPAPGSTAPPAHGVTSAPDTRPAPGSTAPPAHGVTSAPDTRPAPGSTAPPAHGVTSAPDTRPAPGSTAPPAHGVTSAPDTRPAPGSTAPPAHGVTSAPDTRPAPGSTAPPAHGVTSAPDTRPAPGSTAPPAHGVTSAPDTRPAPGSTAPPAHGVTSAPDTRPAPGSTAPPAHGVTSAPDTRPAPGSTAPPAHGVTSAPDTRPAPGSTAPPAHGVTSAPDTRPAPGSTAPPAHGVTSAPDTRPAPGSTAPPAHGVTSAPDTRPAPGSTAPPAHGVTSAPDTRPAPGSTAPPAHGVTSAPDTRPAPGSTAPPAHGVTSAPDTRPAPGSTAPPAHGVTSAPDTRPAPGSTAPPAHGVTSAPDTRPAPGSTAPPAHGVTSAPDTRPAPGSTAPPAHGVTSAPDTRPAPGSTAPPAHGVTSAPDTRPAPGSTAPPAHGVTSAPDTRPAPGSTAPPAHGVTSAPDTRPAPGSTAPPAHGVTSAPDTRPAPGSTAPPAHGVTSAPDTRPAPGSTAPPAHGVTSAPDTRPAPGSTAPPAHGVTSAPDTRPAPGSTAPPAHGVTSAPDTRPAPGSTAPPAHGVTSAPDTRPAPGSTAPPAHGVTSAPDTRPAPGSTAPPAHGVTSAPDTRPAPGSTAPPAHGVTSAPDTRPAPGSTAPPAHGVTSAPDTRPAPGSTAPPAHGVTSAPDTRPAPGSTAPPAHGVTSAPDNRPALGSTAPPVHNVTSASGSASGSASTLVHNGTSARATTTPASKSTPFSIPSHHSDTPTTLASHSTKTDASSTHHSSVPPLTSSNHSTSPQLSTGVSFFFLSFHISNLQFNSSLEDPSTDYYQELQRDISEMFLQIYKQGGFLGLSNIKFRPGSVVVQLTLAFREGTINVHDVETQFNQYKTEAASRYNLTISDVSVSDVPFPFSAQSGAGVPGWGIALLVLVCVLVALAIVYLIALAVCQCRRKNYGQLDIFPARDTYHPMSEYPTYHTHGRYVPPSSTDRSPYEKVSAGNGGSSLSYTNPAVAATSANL

IC50 [2] [µM]	IC50 [3] [µM]	IC50 [4] [µM]	Compound	IC50 [1] [µM]	Kd [5] [nM]	Km [6] [µM]	Kd [7] [nM]
0.0012	0.00077	0.00055	CC(=O)O[C@@]12CO[C@@H]1C[C@H](O)[C@@]1(C)C(=O)[C@H](O)C3=C(C)[C@@H](OC(=O)[C@H](O)[C@@H](NC(=O)OC(C)(C)C)c4ccccc4)C[C@@](O)([C@@H](OC(=O)c4ccccc4)[C@H]21)C3(C)C [Docetaxel]	0.026			
0.59	0.22	0.056	Nc1ccn([C@@H]2O[C@H](CO)[C@@H](O)C2(F)F)c(=O)n1 [Gemcitabine]	0.29			
			Nc1nc2ncc(CNc3ccc(C(=O)N[C@@H](CCC(=O)O)C(=O)O)cc3)nc2c(=O)[nH]1 [folates, Folic acid]		~0.1	~1	
			synthetic peptide YCAREPPTRTFAYWG (SEQ ID NO: 9), specific ligand of mucin-1 [EPPT1]				20000
